Laboratory results: ChEMBL document CHEMBL1201862, “PubChem BioAssay data set” (2004)
The source made the active and inactive calls.

Legend:
[1] = THP-1 cell cytotoxicity, dose response, cytotoxicity control for non-replicating M. tuberculosis project (AID 489025); assay type: functional
cells = assay type: functional
HEK293 [2] = experiment: inhibition of NOD1-driven NF-kB reporter – cell-based, luminescence, uHTS, primary screen (AID 1578); assay type: functional; conditions: Homo sapiens
HEK293 [3] = experiment: NOD2 signaling inhibitors in MDP-stimulated cells, cell-based, uHTS, luminescence (AID 2001); assay type: functional; conditions: Homo sapiens
Caspase-3 = target: T1, Caspase-3 (Homo sapiens, UniProt P42574); assay type: functional;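 also: Dose-response selectivity test against caspase-3 for candidate inhibitors of sentrin-specific proteases (SENPs)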
T1 sequence (P42574 whole entry): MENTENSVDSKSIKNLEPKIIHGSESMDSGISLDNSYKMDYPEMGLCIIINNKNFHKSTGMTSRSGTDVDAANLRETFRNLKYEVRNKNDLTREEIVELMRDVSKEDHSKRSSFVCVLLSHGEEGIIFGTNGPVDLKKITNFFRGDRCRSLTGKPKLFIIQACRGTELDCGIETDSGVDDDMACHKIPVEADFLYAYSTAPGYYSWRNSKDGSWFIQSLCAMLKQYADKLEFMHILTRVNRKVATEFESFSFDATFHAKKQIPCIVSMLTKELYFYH

[4] = target: Nuclear receptor subfamily 5 group A member 2 (Homo sapiens, UniProt O00482); assay type: functional, cell-based;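 also: HEK293T cells transfected with LRH-1 and a StAR promoter luciferase reporter; potency for inhibitors that lower LRH-1 driven reporter light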
Nuclear receptor subfamily 5 group A member 2, sequence (O00482 whole entry): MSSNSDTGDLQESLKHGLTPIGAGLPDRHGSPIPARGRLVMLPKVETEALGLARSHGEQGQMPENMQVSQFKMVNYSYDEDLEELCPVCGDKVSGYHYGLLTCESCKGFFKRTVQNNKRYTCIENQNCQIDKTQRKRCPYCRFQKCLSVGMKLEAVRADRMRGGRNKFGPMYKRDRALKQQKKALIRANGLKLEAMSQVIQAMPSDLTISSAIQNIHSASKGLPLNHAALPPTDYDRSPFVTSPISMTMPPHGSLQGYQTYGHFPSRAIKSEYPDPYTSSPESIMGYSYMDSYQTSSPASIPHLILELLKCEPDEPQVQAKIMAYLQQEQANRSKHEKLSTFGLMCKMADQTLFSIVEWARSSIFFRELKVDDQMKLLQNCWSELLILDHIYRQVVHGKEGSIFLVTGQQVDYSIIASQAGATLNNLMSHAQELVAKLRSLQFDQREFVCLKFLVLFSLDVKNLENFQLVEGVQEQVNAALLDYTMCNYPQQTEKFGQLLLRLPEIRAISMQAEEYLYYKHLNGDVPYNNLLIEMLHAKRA

[5] = nonselective StAR promoter luciferase inhibitors – cell-based, luminescence, luciferase reporter, counter-screen for LRH-1 inverse agonist project, dose response (AID 651969); assay type: functional
Steroidogenic factor 1 = Steroidogenic factor 1 (Homo sapiens, UniProt Q13285); experiment: Counterscreen for inverse agonists of the liver receptor homolog-1 (LRH-1; NR5A2): Luminescence-based cell-based high throughput dose response assay to identify inverse agonists of the Steroidogenic Factor 1 Nuclear Receptor (SF1; NR5A1).; assay type: functional
Steroidogenic factor 1, sequence (Q13285 whole entry): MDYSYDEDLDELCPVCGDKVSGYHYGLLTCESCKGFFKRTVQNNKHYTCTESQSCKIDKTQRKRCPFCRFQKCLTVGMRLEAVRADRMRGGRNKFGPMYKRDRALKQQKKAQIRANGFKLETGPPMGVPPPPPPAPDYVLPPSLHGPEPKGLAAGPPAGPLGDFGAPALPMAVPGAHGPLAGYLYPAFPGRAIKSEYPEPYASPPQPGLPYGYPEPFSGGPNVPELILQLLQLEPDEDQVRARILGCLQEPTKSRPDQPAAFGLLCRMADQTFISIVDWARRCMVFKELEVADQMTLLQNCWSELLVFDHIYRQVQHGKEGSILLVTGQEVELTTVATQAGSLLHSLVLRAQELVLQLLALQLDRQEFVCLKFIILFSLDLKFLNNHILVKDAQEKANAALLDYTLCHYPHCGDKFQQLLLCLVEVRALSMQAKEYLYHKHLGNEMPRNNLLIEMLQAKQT

HEK293 [6] = experiment: cells; assay type: functional, cell-based; conditions: Homo sapiens
[7] = target: T2, Sentrin-specific protease 7 (Homo sapiens, UniProt Q9BQF6); assay type: functional;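 also: Luminescence-based dose-response confirmation of ultra-high-throughput screening hits, measuring inhibition of SENP7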
T2 sequence (Q9BQF6 whole entry): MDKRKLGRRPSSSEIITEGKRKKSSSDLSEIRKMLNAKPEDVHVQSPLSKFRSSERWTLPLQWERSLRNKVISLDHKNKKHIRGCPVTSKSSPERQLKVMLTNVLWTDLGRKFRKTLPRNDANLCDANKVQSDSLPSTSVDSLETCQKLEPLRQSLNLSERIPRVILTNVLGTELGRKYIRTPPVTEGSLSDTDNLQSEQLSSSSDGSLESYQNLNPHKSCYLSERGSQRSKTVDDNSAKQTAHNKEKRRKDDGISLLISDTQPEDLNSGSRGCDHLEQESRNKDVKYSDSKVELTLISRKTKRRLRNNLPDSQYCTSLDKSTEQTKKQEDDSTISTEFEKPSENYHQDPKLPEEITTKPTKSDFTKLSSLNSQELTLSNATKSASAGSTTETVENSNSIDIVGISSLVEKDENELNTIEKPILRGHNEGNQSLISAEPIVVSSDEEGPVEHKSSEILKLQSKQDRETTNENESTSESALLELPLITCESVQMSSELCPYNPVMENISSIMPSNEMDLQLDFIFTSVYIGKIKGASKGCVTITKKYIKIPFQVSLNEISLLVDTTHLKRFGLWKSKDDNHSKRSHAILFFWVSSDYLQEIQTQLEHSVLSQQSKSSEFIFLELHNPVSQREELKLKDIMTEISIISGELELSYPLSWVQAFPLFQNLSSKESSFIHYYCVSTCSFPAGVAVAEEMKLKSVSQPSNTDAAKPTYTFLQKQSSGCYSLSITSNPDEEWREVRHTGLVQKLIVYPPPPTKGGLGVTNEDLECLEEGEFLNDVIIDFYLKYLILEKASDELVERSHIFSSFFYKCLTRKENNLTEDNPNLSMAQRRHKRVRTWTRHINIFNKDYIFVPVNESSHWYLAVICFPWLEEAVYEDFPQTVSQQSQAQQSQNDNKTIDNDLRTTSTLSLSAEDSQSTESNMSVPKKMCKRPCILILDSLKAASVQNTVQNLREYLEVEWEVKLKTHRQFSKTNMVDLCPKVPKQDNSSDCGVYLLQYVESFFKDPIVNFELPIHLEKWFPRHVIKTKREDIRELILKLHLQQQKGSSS

HEK293 [8] = experiment: cells; assay type: functional, cell-based; conditions: Homo sapiens; remark: listed apart in the source
[9] = target: T3, Sentrin-specific protease 6 (Homo sapiens, UniProt Q9GZR1); assay type: functional;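 also: Luminescence-based dose-response confirmatory assay of SENP6 inhibition, following up an ultra-high-throughput screen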
T3 sequence (Q9GZR1 whole entry): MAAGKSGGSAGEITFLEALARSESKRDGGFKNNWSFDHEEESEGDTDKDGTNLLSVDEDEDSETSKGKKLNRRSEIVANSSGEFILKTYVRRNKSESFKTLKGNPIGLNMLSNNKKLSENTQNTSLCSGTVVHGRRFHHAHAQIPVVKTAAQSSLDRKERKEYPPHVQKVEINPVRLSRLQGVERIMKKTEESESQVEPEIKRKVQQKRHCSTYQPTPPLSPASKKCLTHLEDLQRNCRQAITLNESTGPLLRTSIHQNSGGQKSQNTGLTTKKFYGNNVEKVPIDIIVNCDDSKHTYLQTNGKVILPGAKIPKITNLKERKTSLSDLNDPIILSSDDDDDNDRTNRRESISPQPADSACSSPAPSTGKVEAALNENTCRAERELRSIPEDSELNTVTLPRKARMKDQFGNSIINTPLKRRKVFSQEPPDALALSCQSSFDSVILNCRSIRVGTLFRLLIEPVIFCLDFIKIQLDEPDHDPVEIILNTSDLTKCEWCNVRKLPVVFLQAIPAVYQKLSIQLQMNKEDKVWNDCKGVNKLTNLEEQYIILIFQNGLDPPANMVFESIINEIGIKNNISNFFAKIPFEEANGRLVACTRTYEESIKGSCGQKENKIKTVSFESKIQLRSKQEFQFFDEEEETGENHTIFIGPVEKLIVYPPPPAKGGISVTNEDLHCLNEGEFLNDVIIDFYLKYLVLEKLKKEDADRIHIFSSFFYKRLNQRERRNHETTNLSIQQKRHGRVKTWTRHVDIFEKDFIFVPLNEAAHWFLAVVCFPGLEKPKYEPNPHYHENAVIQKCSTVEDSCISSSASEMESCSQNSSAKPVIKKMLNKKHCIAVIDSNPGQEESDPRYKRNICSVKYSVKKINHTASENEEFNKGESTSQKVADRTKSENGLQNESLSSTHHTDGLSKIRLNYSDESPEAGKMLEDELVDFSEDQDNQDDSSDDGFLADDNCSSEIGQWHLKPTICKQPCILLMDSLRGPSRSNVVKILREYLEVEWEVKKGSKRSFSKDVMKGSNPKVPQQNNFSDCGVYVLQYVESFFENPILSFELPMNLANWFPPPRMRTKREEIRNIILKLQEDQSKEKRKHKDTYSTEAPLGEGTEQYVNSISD

[10] = target: T4, Sentrin-specific protease 8 (Homo sapiens, UniProt Q96LD8); assay type: functional;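 also: luminescence read-out of SENP8 inhibition, dose-response confirmation following an ultra-high-throughput screen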
T4 sequence (Q96LD8 whole entry): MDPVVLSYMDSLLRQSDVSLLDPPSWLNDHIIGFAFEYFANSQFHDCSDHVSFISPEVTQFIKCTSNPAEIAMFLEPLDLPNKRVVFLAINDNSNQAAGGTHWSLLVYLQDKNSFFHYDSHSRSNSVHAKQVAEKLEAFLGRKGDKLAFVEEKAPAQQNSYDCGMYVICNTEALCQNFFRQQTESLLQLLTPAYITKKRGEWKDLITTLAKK

HEK293 [11] = experiment: cells; assay type: functional, cell-based; conditions: Homo sapiens; remark: listed apart in the source
[12] = target: Nucleotide-binding oligomerization domain-containing protein 2 (Homo sapiens, UniProt Q9HC29); experiment: inhibition of NOD2-driven NF-kB reporter – cell-based, luminescence, uHTS, HEK293 (AID 1566); assay type: functional
Nucleotide-binding oligomerization domain-containing protein 2, sequence (Q9HC29 whole entry, the tested form may be a part): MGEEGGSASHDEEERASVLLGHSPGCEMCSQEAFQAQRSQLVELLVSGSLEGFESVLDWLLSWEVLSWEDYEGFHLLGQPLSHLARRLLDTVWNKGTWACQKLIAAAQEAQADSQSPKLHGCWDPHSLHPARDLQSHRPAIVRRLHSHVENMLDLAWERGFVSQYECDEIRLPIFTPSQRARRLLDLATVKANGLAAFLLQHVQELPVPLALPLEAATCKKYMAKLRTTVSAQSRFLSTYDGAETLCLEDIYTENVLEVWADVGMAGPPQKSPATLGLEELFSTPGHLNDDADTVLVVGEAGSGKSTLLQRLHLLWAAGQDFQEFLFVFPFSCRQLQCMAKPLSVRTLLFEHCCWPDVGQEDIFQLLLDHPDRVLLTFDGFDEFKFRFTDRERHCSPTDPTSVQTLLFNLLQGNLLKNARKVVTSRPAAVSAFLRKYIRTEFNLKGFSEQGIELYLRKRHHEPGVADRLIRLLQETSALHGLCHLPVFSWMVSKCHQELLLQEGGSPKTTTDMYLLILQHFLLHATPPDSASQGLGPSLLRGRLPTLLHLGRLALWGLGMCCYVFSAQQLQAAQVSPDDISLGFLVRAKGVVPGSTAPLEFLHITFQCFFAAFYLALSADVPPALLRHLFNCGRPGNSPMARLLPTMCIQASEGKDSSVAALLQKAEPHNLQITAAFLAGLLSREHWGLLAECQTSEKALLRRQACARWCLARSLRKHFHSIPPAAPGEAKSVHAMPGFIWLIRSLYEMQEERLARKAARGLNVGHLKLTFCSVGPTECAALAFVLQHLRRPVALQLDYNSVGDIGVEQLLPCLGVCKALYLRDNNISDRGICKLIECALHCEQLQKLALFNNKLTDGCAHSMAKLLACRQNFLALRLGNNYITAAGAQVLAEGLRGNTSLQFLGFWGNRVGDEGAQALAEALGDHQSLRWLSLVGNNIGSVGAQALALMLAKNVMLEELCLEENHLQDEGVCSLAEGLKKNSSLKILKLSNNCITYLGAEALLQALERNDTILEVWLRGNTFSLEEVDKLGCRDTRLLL

BJ [13] = experiment: BJ-TERT fibroblast viability loss – cell-based, RAS-independent, luminescence, dose response (AID 1933); assay type: functional; conditions: Homo sapiens
Protein RecA = target: T5, Protein RecA (Mycobacterium tuberculosis, UniProt P9WHJ3); experiment: Fluorescence Cell-Free Homogeneous Dose Retest to Identify Inhibitors of RecA-Intein Splicing Activity. [Related pubchem assays (depositor defined):AID2097, AID2223, AID489010, AID492950]; assay type: functional
T5 sequence (P9WHJ3 whole entry): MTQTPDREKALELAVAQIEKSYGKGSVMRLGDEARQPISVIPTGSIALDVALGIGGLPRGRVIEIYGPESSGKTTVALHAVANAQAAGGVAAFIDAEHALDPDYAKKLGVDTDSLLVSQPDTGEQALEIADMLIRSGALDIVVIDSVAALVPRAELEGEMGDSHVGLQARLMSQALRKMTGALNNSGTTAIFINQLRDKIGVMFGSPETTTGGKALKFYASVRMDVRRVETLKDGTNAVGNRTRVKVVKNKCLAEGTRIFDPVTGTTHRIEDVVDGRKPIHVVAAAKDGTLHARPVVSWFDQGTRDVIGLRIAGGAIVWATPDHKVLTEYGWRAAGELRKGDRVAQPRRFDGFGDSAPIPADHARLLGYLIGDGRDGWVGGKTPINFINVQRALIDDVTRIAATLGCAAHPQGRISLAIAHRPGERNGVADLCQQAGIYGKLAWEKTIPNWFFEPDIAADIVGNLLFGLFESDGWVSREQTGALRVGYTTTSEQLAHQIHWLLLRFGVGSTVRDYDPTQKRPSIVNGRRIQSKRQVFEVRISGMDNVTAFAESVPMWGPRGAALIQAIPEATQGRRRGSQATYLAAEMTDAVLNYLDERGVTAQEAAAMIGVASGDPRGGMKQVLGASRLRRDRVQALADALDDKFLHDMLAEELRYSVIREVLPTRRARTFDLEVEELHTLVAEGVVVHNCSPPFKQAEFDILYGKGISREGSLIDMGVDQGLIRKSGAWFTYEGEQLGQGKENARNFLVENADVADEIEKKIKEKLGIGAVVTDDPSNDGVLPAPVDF

[14] = target: T6, Replicative DNA helicase DnaB (Mycobacterium tuberculosis, UniProt P9WMR3); experiment: DnaB intein splicing inhibitors, dose response, biochemical, cell-free fluorescence (AID 449749); assay type: functional
T6 sequence (P9WMR3 whole entry): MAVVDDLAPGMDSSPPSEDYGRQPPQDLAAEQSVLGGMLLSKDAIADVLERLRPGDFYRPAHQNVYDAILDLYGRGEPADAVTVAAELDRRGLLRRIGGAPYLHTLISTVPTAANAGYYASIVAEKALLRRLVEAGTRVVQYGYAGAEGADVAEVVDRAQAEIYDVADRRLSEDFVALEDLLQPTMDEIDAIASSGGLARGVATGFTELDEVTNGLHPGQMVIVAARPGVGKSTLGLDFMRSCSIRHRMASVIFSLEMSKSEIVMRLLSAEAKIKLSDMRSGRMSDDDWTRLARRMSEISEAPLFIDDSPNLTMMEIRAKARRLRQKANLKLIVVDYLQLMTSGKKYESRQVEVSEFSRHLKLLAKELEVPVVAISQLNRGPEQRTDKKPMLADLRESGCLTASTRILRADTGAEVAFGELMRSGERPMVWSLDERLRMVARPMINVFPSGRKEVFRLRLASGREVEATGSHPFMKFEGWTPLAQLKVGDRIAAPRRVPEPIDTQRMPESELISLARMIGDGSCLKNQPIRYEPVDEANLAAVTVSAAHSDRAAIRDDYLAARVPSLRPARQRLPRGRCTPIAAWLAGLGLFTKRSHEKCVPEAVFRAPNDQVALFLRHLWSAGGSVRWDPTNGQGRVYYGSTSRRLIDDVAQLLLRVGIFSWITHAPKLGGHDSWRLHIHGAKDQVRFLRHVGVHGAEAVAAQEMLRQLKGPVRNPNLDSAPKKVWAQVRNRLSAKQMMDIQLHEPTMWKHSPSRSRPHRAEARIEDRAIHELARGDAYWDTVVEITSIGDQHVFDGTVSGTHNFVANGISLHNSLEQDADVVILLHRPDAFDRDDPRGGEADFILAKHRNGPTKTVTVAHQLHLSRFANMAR

BJ [15] = experiment: cells; assay type: functional, cell-based; conditions: Homo sapiens
[16] = DRD fibroblast viability loss – cell-based, non-viral oncogenic, luminescence, dose response (AID 1934); assay type: functional; conditions: Homo sapiens
BJ [17] = experiment: BJ-TERT-LT-ST fibroblast viability loss – cell-based, RAS-independent, luminescence, dose response (AID 1935); assay type: functional; conditions: Homo sapiens;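 also: BJ fibroblasts immortalized with TERT plus LT and ST oncogenes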

Structure (SMILES) | EC50 (HEK293 [2]) | IC50 (HEK293 [3]) | IC50 (HEK293 [6]) | IC50 (HEK293 [8]) | IC50 (HEK293 [11]) | EC50 [12] | further results
O=C(Nc1nc2c(Cl)cccc2s1)c1ccc([N+](=O)[O-])o1 | 5.52 µM (active) | 13.2 µM (inactive) | 18.6 µM (active) | 7.38 µM (active) | – | – | CC50 [1]: 39.3 µM (active); IC50 (cells): 10.4 µM (active); IC50 (Caspase-3): 61.8 µM (active); IC50 [4]: 0.148 µM (active); IC50 [5]: 35.9 µM (inactive); IC50 (Steroidogenic factor 1): 0.443 µM (active); IC50 [7]: 17.2 µM (active); IC50 [9]: 20.3 µM (active); IC50 [10]: 32.9 µM (active)
CCOC(=O)c1sc2ccccc2c1OC(=O)c1ccc(C)cc1 | 10.7 µM (active) | 6.76 µM (active) | 9.53 µM (active) | > 20 µM (inactive) | > 20 µM (inactive) | 2.22 µM (active) | –
O=C(CCl)Nc1cc(-c2ccccc2)nn1-c1ccccc1 | 4.71 µM (active) | 7.21 µM (active) | 4.63 µM (active) | 19.2 µM (active) | > 20 µM (inactive) | > 20 µM (inactive) | EC50 (BJ [13]): 5.38 µM (inconclusive); EC50 (Protein RecA): 5.55 µM (active); AC50 [14]: > 380 µM (inactive); EC50 (BJ [15]): 9.6 µM (active); EC50 [16]: 8.91 µM (active); EC50 (BJ [17]): 5.05 µM (active)
